Assays:
[1] = tested on: Tyrosine-protein kinase ABL1 (Homo sapiens), P00519 [F317I]; conditions: Compound concentration 1000.0 nM
[2] = target: Activin receptor type-1-like (Homo sapiens) (UniProt P37023); conditions: Compound concentration 1000.0 nM
[3] = tested on: ALK tyrosine kinase receptor (Homo sapiens), Q9UM73 [C1156Y]; conditions: Compound concentration 1000.0 nM
[4] = target: Tyrosine-protein kinase receptor UFO (Homo sapiens) (UniProt P30530); conditions: Compound concentration 1000.0 nM
[5] = target: Calcium/calmodulin-dependent protein kinase type II subunit delta (Homo sapiens) (UniProt Q13557); conditions: Compound concentration 1000.0 nM
[6] = target: Cyclin-dependent kinase 2 (Homo sapiens) (UniProt P24941); conditions: Compound concentration 1000.0 nM
[7] = target: Casein kinase II subunit alpha (Homo sapiens) (UniProt P68400); conditions: Compound concentration 1000.0 nM
[8] = target: Serine/threonine-protein kinase 17A (Homo sapiens) (UniProt Q9UEE5); conditions: Compound concentration 1000.0 nM
[9] = target: Serine/threonine-protein kinase 17B (Homo sapiens) (UniProt O94768); conditions: Compound concentration 1000.0 nM
[10] = target: Mitogen-activated protein kinase 15 (Homo sapiens) (UniProt Q8TD08); conditions: Compound concentration 1000.0 nM
[11] = target: Tyrosine-protein kinase Fes/Fps (Homo sapiens) (UniProt P07332); conditions: Compound concentration 1000.0 nM
[12] = tested on: Receptor-type tyrosine-protein kinase FLT3 (Homo sapiens), P36888 [N841I]; conditions: Compound concentration 1000.0 nM
[13] = target: Serine/threonine-protein kinase ICK (Homo sapiens) (UniProt Q9UPZ9); conditions: Compound concentration 1000.0 nM
[14] = target: Mitogen-activated protein kinase 10 (Homo sapiens) (UniProt P53779); conditions: Compound concentration 1000.0 nM
[15] = tested on: Mast/stem cell growth factor receptor Kit (Homo sapiens), P10721 [V559D,T670I]; conditions: Compound concentration 1000.0 nM
[16] = target: Leucine-rich repeat serine/threonine-protein kinase 2 (Homo sapiens) (UniProt Q5S007); conditions: Compound concentration 1000.0 nM
[17] = target: Mitogen-activated protein kinase kinase kinase kinase 5 (Homo sapiens) (UniProt Q9Y4K4); conditions: Compound concentration 1000.0 nM
[18] = target: Maternal embryonic leucine zipper kinase (Homo sapiens) (UniProt Q14680); conditions: Compound concentration 1000.0 nM
[19] = target: Myosin-IIIa (Homo sapiens) (UniProt Q8NEV4); conditions: Compound concentration 1000.0 nM
[20] = target: Mitogen-activated protein kinase 12 (Homo sapiens) (UniProt P53778); conditions: Compound concentration 1000.0 nM
[21] = target: Cyclin-dependent kinase 18 (Homo sapiens) (UniProt Q07002); conditions: Compound concentration 1000.0 nM
[22] = tested on: Phosphatidylinositol 4,5-bisphosphate 3-kinase catalytic subunit alpha isoform (Homo sapiens), P42336 [H1047L]; conditions: Compound concentration 1000.0 nM
[23] = tested on: Phosphatidylinositol 4,5-bisphosphate 3-kinase catalytic subunit alpha isoform (Homo sapiens), P42336 [Q546K]; conditions: Compound concentration 1000.0 nM
[24] = target: Phosphatidylinositol 4,5-bisphosphate 3-kinase catalytic subunit gamma isoform (Homo sapiens) (UniProt P48736); conditions: Compound concentration 1000.0 nM
[25] = target: 1-phosphatidylinositol 3-phosphate 5-kinase (Homo sapiens) (UniProt Q9Y2I7); conditions: Compound concentration 1000.0 nM
[26] = target: Serine/threonine-protein kinase PknB (Mycobacterium tuberculosis) (UniProt P9WI81); conditions: Compound concentration 1000.0 nM
[27] = target: Protein kinase C iota type (Homo sapiens) (UniProt P41743); conditions: Compound concentration 1000.0 nM
[28] = target: Serine/threonine-protein kinase D3 (Homo sapiens) (UniProt O94806); conditions: Compound concentration 1000.0 nM
[29] = target: cGMP-dependent protein kinase 2 (Homo sapiens) (UniProt Q13237); conditions: Compound concentration 1000.0 nM
[30] = target: Serine/threonine-protein kinase SIK3 (Homo sapiens) (UniProt Q9Y2K2); conditions: Compound concentration 1000.0 nM
[31] = target: Serine/threonine-protein kinase RIO3 (Homo sapiens) (UniProt O14730); conditions: Compound concentration 1000.0 nM
[32] = target: Receptor-interacting serine/threonine-protein kinase 4 (Homo sapiens) (UniProt P57078); conditions: Compound concentration 1000.0 nM
[33] = target: Dual serine/threonine and tyrosine protein kinase (Homo sapiens) (UniProt Q6XUX3); conditions: Compound concentration 1000.0 nM
[34] = target: Mitogen-activated protein kinase kinase kinase 7 (Homo sapiens) (UniProt O43318); conditions: Compound concentration 1000.0 nM
[35] = target: Non-receptor tyrosine-protein kinase TNK1 (Homo sapiens) (UniProt Q13470); conditions: Compound concentration 1000.0 nM
[36] = target: Transient receptor potential cation channel subfamily M member 6 (Homo sapiens) (UniProt Q9BX84); conditions: Compound concentration 1000.0 nM
[37] = target: Mitogen-activated protein kinase kinase kinase 20 (Homo sapiens) (UniProt Q9NYL2); conditions: Compound concentration 1000.0 nM
[38] = target: D(3) dopamine receptor (Homo sapiens) (UniProt P35462); conditions: Compound concentration 10.0 uM
[39] = target: Sodium-dependent noradrenaline transporter (Homo sapiens) (UniProt P23975); conditions: Compound concentration 10.0 uM
[40] = target: Histamine H1 receptor (Homo sapiens) (UniProt P35367); conditions: Compound concentration 10.0 uM
[41] = target: Alpha-2B adrenergic receptor (Homo sapiens) (UniProt P18089); conditions: Compound concentration 10.0 uM
[42] = target: Beta-1 adrenergic receptor (Homo sapiens) (UniProt P08588); conditions: Compound concentration 10.0 uM
[43] = target: Alpha-1D adrenergic receptor (Homo sapiens) (UniProt P25100); conditions: Compound concentration 10.0 uM
[44] = target: Sigma intracellular receptor 2 (Homo sapiens) (UniProt Q5BJF2); conditions: Compound concentration 10.0 uM
[45] = target: Sigma non-opioid intracellular receptor 1 (Homo sapiens) (UniProt Q99720); conditions: Compound concentration 10.0 uM
Chain of Sigma non-opioid intracellular receptor 1 (Homo sapiens) (Q99720 whole entry): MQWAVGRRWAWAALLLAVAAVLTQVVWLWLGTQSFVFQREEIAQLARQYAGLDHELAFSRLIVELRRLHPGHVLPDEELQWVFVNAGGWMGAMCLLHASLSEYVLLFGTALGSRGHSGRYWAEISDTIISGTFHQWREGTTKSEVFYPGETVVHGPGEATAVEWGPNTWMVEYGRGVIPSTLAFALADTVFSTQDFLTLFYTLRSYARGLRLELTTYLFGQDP

Chain of Calcium/calmodulin-dependent protein kinase type II subunit delta (Homo sapiens) (Q13557 whole entry): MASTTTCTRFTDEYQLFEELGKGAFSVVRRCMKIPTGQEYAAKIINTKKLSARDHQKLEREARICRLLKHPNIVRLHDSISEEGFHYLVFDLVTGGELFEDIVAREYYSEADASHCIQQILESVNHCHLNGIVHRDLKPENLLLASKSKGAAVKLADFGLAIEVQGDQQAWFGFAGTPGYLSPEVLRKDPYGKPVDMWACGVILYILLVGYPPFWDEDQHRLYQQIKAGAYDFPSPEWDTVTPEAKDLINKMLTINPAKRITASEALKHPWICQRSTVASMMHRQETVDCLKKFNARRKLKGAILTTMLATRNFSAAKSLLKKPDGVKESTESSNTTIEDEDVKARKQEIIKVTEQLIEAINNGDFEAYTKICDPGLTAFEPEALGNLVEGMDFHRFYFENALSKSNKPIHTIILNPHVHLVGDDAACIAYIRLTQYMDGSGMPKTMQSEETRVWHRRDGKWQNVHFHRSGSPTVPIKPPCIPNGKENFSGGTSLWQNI
Chain of Phosphatidylinositol 4,5-bisphosphate 3-kinase catalytic subunit alpha isoform (Homo sapiens), P42336 [Q546K] (P42336 whole entry Q546K, canonical isoform): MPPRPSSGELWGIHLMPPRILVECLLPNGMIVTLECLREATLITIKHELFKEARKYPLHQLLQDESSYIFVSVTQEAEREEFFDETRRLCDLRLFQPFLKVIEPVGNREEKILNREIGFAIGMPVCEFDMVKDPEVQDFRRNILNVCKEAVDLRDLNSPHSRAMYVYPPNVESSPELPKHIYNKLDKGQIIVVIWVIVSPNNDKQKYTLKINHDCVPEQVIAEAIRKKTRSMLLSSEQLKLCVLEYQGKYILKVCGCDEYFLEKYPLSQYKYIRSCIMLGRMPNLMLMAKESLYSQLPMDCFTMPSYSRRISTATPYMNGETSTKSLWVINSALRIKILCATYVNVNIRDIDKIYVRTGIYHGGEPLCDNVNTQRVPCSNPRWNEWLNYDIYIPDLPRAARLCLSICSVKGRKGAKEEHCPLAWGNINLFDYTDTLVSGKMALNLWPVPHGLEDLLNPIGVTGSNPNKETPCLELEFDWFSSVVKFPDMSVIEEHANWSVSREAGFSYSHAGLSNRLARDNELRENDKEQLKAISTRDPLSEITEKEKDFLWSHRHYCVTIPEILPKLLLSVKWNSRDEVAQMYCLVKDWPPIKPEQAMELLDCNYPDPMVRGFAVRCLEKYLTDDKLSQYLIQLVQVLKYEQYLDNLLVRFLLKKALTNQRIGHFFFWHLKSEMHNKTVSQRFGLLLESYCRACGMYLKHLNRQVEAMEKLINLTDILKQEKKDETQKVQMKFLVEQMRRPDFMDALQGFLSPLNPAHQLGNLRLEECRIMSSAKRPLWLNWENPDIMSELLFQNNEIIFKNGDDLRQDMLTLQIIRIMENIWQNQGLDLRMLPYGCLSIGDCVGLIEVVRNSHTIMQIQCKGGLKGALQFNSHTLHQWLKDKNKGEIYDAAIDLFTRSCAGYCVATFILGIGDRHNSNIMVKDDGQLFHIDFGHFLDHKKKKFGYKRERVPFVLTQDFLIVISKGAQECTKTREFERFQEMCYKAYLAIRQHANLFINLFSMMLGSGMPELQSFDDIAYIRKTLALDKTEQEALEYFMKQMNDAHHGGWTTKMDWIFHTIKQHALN
Chain of Serine/threonine-protein kinase 17A (Homo sapiens) (Q9UEE5 whole entry): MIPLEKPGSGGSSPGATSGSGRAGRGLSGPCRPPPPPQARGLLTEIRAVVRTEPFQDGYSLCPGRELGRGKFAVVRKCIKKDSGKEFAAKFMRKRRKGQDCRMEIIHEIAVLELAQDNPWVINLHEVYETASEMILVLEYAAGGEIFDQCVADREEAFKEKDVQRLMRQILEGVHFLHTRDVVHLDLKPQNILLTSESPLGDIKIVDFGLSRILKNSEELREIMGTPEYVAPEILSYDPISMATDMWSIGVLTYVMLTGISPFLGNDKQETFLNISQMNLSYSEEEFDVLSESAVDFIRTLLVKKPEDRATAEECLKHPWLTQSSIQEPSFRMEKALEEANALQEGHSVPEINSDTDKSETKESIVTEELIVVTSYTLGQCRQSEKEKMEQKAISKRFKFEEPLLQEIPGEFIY
Chain of Mitogen-activated protein kinase 12 (Homo sapiens) (P53778 whole entry): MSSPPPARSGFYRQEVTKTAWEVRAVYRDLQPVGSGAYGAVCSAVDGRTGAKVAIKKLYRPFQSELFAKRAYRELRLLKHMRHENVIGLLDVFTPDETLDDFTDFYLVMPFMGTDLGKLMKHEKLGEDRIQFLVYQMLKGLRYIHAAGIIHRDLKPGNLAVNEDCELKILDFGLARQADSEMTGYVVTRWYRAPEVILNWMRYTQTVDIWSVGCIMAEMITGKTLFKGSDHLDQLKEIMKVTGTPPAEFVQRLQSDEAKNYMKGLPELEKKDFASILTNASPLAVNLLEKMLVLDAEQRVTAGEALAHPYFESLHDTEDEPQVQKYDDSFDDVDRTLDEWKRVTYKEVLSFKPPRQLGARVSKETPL
Chain of 1-phosphatidylinositol 3-phosphate 5-kinase (Homo sapiens) (Q9Y2I7 whole entry): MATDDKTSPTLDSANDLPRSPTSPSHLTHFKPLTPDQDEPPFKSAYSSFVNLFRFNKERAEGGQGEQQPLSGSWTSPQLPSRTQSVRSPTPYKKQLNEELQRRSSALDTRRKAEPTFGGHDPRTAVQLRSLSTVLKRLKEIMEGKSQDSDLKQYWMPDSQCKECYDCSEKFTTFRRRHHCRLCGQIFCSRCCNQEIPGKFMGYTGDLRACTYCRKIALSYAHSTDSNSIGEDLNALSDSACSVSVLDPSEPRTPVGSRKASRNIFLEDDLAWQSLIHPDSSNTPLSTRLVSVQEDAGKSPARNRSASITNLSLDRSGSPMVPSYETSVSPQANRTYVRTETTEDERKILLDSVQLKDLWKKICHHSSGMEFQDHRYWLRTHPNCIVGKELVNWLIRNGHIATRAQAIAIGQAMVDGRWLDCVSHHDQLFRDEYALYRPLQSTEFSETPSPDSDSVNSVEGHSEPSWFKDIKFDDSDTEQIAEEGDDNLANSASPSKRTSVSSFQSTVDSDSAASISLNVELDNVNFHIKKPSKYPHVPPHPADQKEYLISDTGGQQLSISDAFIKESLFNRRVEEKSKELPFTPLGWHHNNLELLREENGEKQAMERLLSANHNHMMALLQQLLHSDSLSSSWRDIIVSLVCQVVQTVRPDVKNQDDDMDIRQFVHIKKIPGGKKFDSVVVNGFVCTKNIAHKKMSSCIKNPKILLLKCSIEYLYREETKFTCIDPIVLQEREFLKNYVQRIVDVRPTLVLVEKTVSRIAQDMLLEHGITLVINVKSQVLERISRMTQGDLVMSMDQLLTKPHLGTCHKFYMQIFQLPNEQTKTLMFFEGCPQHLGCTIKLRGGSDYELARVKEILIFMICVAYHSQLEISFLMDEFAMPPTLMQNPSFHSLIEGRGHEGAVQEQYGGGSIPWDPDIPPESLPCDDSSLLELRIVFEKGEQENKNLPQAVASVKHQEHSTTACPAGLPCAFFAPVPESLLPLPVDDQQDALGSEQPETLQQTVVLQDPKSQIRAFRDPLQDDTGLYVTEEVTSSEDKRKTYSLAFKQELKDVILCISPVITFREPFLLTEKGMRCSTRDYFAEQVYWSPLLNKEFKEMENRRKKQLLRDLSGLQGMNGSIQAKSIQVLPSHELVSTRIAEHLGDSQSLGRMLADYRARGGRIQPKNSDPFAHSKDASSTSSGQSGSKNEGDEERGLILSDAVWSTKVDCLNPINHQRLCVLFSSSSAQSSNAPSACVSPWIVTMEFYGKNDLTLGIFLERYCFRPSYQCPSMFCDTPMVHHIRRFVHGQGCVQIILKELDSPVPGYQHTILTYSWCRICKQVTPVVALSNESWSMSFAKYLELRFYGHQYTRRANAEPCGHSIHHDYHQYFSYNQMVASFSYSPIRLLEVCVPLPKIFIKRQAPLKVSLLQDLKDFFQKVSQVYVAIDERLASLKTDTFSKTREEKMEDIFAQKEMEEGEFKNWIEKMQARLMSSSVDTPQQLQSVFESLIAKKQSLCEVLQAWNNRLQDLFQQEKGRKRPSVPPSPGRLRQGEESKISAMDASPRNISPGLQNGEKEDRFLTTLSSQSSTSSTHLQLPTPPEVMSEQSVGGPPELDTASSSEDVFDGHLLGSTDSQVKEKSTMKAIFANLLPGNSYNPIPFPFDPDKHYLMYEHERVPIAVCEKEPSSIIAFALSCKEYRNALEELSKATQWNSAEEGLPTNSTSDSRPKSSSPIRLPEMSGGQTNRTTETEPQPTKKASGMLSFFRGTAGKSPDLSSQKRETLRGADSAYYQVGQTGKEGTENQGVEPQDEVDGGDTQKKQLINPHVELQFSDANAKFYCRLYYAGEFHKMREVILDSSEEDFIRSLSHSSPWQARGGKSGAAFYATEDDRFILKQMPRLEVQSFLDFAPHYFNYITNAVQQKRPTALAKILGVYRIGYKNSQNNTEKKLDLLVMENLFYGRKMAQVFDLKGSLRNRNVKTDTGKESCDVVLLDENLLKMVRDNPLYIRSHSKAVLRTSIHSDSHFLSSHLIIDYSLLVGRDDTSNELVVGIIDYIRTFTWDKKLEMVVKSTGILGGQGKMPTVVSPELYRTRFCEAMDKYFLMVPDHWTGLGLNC
Chain of Sigma intracellular receptor 2 (Homo sapiens) (Q5BJF2 whole entry): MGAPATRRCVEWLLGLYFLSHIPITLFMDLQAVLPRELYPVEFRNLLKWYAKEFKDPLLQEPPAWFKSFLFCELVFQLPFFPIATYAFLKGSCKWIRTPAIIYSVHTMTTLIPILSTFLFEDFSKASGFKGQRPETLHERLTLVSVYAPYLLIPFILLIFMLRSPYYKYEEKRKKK
Chain of Phosphatidylinositol 4,5-bisphosphate 3-kinase catalytic subunit alpha isoform (Homo sapiens), P42336 [H1047L] (P42336 whole entry H1047L, canonical isoform): as the sequence (P42336 whole entry Q546K, canonical isoform) above, with K546Q, H1047L counted along it

N#Cc1ccc(Nc2ccc3[nH]c(=O)[nH]c3c2)c(Cl)c1
inactive: residual activity [1] 92% | residual activity [2] 100% | residual activity [3] 100% | residual activity [4] 100% | residual activity [5] 100% | residual activity [6] 93% | residual activity [7] 80% | residual activity [8] 94% | residual activity [9] 100% | residual activity [10] 100% | residual activity [11] 100% | residual activity [12] 77% | residual activity [13] 97% | residual activity [14] 100% | residual activity [15] 100% | residual activity [16] 96% | residual activity [17] 77% | residual activity [18] 95% | residual activity [19] 97% | residual activity [20] 100% | residual activity [21] 100% | residual activity [22] 78% | residual activity [23] 93% | residual activity [24] 92% | residual activity [25] 82% | residual activity [26] 100% | residual activity [27] 86% | residual activity [28] 100% | residual activity [29] 87% | residual activity [30] 75% | residual activity [31] 100% | residual activity [32] 89% | residual activity [33] 75% | residual activity [34] 90% | residual activity [35] 56% | residual activity [36] 100% | residual activity [37] 100% | inhibition [38] 3.81% | inhibition [39] -2.68% | inhibition [40] 14.7% | inhibition [41] 13.1% | inhibition [42] 4.98% | inhibition [43] -5.71% | inhibition [44] -4.12% | inhibition [45] 14%

O=C1CCc2cc(Nc3cc(OC4CCOCC4)c([N+](=O)[O-])cc3Cl)ccc2N1
inactive: residual activity [1] 100% | residual activity [2] 93% | residual activity [3] 91% | residual activity [4] 96% | residual activity [5] 100% | residual activity [6] 88% | residual activity [7] 84% | residual activity [8] 95% | residual activity [9] 100% | residual activity [10] 96% | residual activity [11] 100% | residual activity [12] 100% | residual activity [13] 100% | residual activity [14] 98% | residual activity [15] 94% | residual activity [16] 72% | residual activity [17] 87% | residual activity [18] 77% | residual activity [19] 99% | residual activity [20] 100% | residual activity [21] 100% | residual activity [22] 78% | residual activity [23] 70% | residual activity [24] 75% | residual activity [25] 83% | residual activity [26] 94% | residual activity [27] 98% | residual activity [28] 92% | residual activity [29] 85% | residual activity [30] 75% | residual activity [31] 100% | residual activity [32] 100% | residual activity [33] 90% | residual activity [34] 95% | residual activity [35] 87% | residual activity [36] 100% | residual activity [37] 81% | inhibition [38] 35.4% | inhibition [39] 0.76% | inhibition [40] 17% | inhibition [41] -0.04% | inhibition [42] 3.3% | inhibition [43] 3.49% | inhibition [44] 27.1% | inhibition [45] 11.7%

— ChEMBL document CHEMBL4507304, “Data for DCP probe TP-021” (2021)
